Results from patent US6197775A, “Phosphonate nucleotide derivatives” (Mitsubishi Chemical Corporation, priority 1995, dated 2001).
Read-outs that look alike come from different tables or passages of the source.

Key:
[1] = test system: herpes simplex viruses type-2 (HSV-2); settings: literature (Yokota et al.; Votruba et al.); cited from earlier work
[2] = test system: human immunodeficiency virus (HIV); settings: literature (Yokota et al.; Votruba et al.); cited from earlier work
[3] = test system: herpes simplex viruses type-1 (HSV-1); settings: literature (Yokota et al.; Votruba et al.); cited from earlier work
[4] = test system: human hepatitis B virus (HBV); settings: literature (Yokota et al.; Votruba et al.); cited from earlier work
[5] = test system: polychromatic erythrocytes (bone marrow); test: Micronucleus test using mice; format: in vivo
Description: Micronucleus test using mice
A test compound was administered to mice at a dose of 1,000 or 2,000 mg/kg, and bone marrow smear preparations were prepared at 24, 30, 48, and 72 hours after the administration. For a negative control group (0.5% aqueous solution of tragacanth gum) and a positive control group (2 mg/kg of mitomycin C (MMC) was administered as a single intraperitoneal administration), bone marrow smears were prepared at 24 hours after the administration. The samples were stained by the Giemsa's staining method in an ordinary manner, and then 2,000 polychromatic erythrocytes per animal were examined to determine the number of cells having micronuclei and frequency of appearance of micronuclei (%). As statistic analysis, significant difference test was carried out for polychromatic erythrocytes containing micronuclei between the negative control group and the group administered with a test compound according to the stochastic method of Kasternbaum and Bowman.
For comparison, the same test was carried out by using an unsubstituted 6-amino derivative, i.e., 9-[2-[bis(2,2,2-trifluoroethyl)phosphonylmethoxy]ethyl]-2,6-diaminopurine (abbreviated as "DAP"), and PMEA bis(pivaloyloxymethyl ester). Compound Nos. in Table 4 correspond to those in Table 1.

[6] = Cytotoxicity for HB611 cells (cell titer 96); format: cell-based, human; settings: human; 50% death of HB611 cells; read-out: 50% Cytotoxic concentration for HB611 cells
Description: (§1) 2×10^4 HB611 cells (recombinant human liver cancer cells producing HBV) were cultured in Dulbecco's ME medium containing 10% fetal bovine serum, streptomycin (100 μg/ml), penicillin (100 IU/ml), and Geneteicin (trade name of an antibiotic sold by Life Technologies, 0.2 mg/ml) at 37° C. The medium was changed with fresh medium on the second day and fifth day of the culture, and then changed with a medium containing a test compound at a final concentration of 10 μM or 1 μM on the 8th, 11th and 14th days of the culture. DNA of the cells were collected on the 17th day of the culture. Amounts of HBV-DNA in the cells were measured by Southern blotting method and inhibitory rates against HBV-DNA synthesis were determined. Concentrations of compounds required for 50% death of HB611 cells were determined by cell titer 96 (trademark of Promega Corp.). As references, the same test was carried out by using PMEA and its bis(pivaloyloxymethyl ester). Compound Nos. in Table 2 correspond to those in Table 1.

Hepatitis B virus (HBV) = test: Activity for inhibiting proliferation of Hepatitis B virus (HBV): inhibition of HBV-DNA synthesis in HB611 cells; format: cell-based; settings: read-out: Inhibitory ratio against HBV-DNA synthesis (%)
Description: Activity for inhibiting proliferation of Hepatitis B virus (HBV)
Inhibitory activity of the compounds of the present invention against proliferation of HBV was measured by a known method (K. Ueda, et al., VIROLOGY, 169, 213-216 (1989)).
as §1

HBV = test: Inhibitory effect on HBV proliferation in a serum of a rat orally administered with a test compound (HB611 cells cultured with 5% serum); format: cell-based, Hepatitis B virus; settings: 5% serum in medium
Description: Inhibitory effect on HBV proliferation in a serum of a rat orally administered with a test compound
A group consisting of three rats was orally administered with a test compound at a dose of 1 g/kg or 0.3 g/kg by a single oral administration. Blood of the rats was collected one hour after the administration and serum samples were prepared.
2×10^4 HB611 cells were cultured in Dulbecco's ME medium containing 10% fetal bovine serum, streptomycin (100 μg/ml), penicillin (100 IU/ml) and Geneteicin (0.2 mg/ml) at 37° C. The medium was changed with fresh medium on the second day and fifth day of the culture, and then changed with a medium containing 5% of the above serum (the serum of the rat orally administered with a test compound) on the 8th, 11th and 14th days of the culture. DNA of the cells were collected on the 17th day of the culture. Amounts of HBV-DNA in the cells were measured by Southern blotting method, and inhibitory ratios against […] synthesis in the cells were determined. As a reference, the same test was carried out by using PMEA. Compound Nos. in Table 3 correspond to those in Table 1.

HB611 cells = test: Cytotoxicity for HB611 cells (cell titer 96); format: cell-based, human; settings: 50% death of HB611 cells; read-out: 50% Cytotoxic concentration for HB611 cells
Description: as §1

[7] = 408 h, 1 μM, HB611 cells, DNA collected on 17th day
[8] = 408 h, 10 μM, HB611 cells, DNA collected on 17th day
[9] = serum of rats 1 h after single oral dose of 0.3 g/kg

Nc1nc(N)c2ncn(CCOCP(=O)(O)O)c2n1 [PMDAP, 9-(2-phosphonylmethoxy)ethyl-2,6-diaminopurine]
effectiveness against HSV-2 [1]: effective
effectiveness against HIV [2]: effective
effectiveness against HSV-1 [3]: effective
effectiveness against HBV [4]: effective

Nc1nc(N)c2ncn(CCOCP(=O)(OCC(F)(F)F)OCC(F)(F)F)c2n1 [DAP, 9-[2-[bis(2,2,2-trifluoroethyl)phosphonylmethoxy]ethyl]-2,6-diaminopurine, reference compound]
Test result (micronucleus test) ([5]; mouse, in vivo): Positive

CN(C)c1nc(N)nc2c1ncn2CCOCP(=O)(OCC(F)(F)F)OCC(F)(F)F [Compound 11, 2-amino-9-[2-[bis(2,2,2-trifluoroethyl)phosphonylmethoxy]ethyl]-6-(dimethylamino)purine]
Test result (micronucleus test) ([5]; mouse, in vivo): Negative
CC50 [6]: > 1000 µM
inhibition at 1 µM (Hepatitis B virus (HBV); [7]): 92%
inhibition at 10 µM (Hepatitis B virus (HBV); [8]): 100%
Inhibitory ratio against HBV-DNA synthesis (%) (HBV; [9]): 95.6%

CCN(CC)c1nc(N)nc2c1ncn2CCOCP(=O)(OCC(F)(F)F)OCC(F)(F)F [Compound 16, 2-amino-9-[2-[bis(2,2,2-trifluoroethyl)phosphonylmethoxy]-ethyl]-6-(diethylamino)purine]
CC50 [6]: > 1000 µM
inhibition at 10 µM (Hepatitis B virus (HBV); [8]): 100%

Nc1ncnc2c1ncn2CCOCP(=O)(O)O [PMEA, 9-(2-phosphonylmethoxy)ethyladenine]
effectiveness against HSV-2 [1]: effective
effectiveness against HIV [2]: effective
inhibition at 10 µM (Hepatitis B virus (HBV); HB611, 408 h): 83%
effectiveness against HSV-1 [3]: effective
Inhibitory ratio against HBV-DNA synthesis (%) (HBV; serum of rats 1 h after single oral dose of 1 g/kg): 35.5%
effectiveness against HBV [4]: effective

CC(C)(C)C(=O)OCOP(=O)(COCCn1cnc2c(N)ncnc21)OCOC(=O)C(C)(C)C [PMEA ester, PMEA bis(pivaloyloxymethyl ester), reference compound]
Test result (micronucleus test) ([5]; mice, 1,000 or 2,000 mg/kg, bone marrow at 24, 30, 48, and 72 hours): Positive
CC50 (HB611 cells): 18 µM
inhibition at 1 µM (Hepatitis B virus (HBV); HB611, 408 h): 63.7%
inhibition at 10 µM (Hepatitis B virus (HBV); HB611, 408 h): 90%

CN(C)c1nc(N)nc2c1nnn2CCOCP(=O)(OCC(F)(F)F)OCC(F)(F)F [Compound 21, 2-amino-8-aza-9-[2-[bis(2,2,2-trifluoroethyl)phosphonyl-methoxy]ethyl]-6-(dimethylamino)purine]
CC50 [6]: > 1000 µM
inhibition at 10 µM (Hepatitis B virus (HBV); [8]): 100%

CN(c1ccccc1)c1nc(N)nc2c1ncn2CCOCP(=O)(OCC(F)(F)F)OCC(F)(F)F [Compound 621, 2-amino-9-[2-[bis(2,2,2-trifluoroethyl)phosphonyl-methoxy]ethyl]-6-(methylphenylamino)purine]
CC50 [6]: > 1000 µM
inhibition at 1 µM (Hepatitis B virus (HBV); [7]): 68%

CCCCN(C)c1nc(N)nc2c1ncn2CCOCP(=O)(OCC(F)(F)F)OCC(F)(F)F [Compound 15]
CC50 [6]: > 1000 µM
inhibition at 1 µM (Hepatitis B virus (HBV); [7]): 86.7%

CCCN(C)c1nc(N)nc2c1ncn2CCOCP(=O)(OCC(F)(F)F)OCC(F)(F)F [Compound 13, 2-amino-9-[2-[bis(2,2,2-trifluoroethyl)phosphonylmethoxy]-ethyl]-6-(methyl-1-propylamino)purine]
Test result (micronucleus test) ([5]; mouse, in vivo): Negative
CC50 [6]: > 1000 µM
inhibition at 10 µM (Hepatitis B virus (HBV); [8]): 100%
Inhibitory ratio against HBV-DNA synthesis (%) (HBV; [9]): 100%
